Holding throughout (assay type): cell-based, mouse
Experiment [1] deals with MEFs from OG mice. In words: Screen for chemical substitutes of Oct4 in OG-MEFs infected with Sox2, Klf4 and c-Myc. The note with it: OG-MEFs with viral expression of Sox2, Klf4 and c-Myc. As to the method: To identify chemical substitutes of Oct4, MEFs from OG mice were plated at a density of 20,000 cells per well of a 12-well plate and infected with lentiviruses encoding Sox2, Klf4 and c-Myc. After infection, the medium was replaced with LIF-free ESC culture medium. Individual chemicals from small-molecule libraries were added to each well. The medium and chemicals were changed every 4 days. Chemical treatments were continued for 14-20 days or until GFP-positive colonies appeared. Primary hits were selected for further confirmation and optimization.
Small molecules that enable reprogramming in the absence of Oct4 were searched using Oct4 promoter-driven green fluorescent protein (GFP) expression (OG) mouse embryonic fibroblasts (MEFs), with viral expression of Sox2, Klf4, and c-Myc.

Experiment [2] concerns MEFs from OG mice. In words: Screen for small molecules that facilitate late reprogramming (DOX-inducible Oct4 plus VC6T). On the procedure: To identify small molecules that facilitate late reprogramming, a doxycycline (DOX)-inducible Oct4 expression screening system was used (Li, et al., Cell Res. 21:196-204 (2011)).
MEFs from OG mice were plated as described above and infected with Fu-tet-hOct4 and FUdeltaGW-rtTA lentiviruses. The induction protocol was carried out as described above.
After infection, the culture medium was replaced with LIF-free ESC culture medium containing VC6T (VPA, CHIR99021, 616452, Tranylcypromine) plus DOX (1 μg/ml). Alternatively, MEFs harboring DOX-inducible Oct4 from Tet-On POU5F1 mouse strain B6; 129-Gt(ROSA)26Sor^tm1(rTA*M2)Jae COl1a1^tm2(tetO-Pou5f1)Jae/J were used in this screen (Li, et al., Cell Res., 21:196-204 (2011)). These two DOX-inducible systems were only used in this screen, but not in complete chemical reprogramming. Individual chemicals from small-molecule libraries were added to each well. Small molecules were added at different culture time points. 5-aza-C (5-Azacytidine) and DZNep were added from day 8. The medium and chemicals were changed every 4 days; DOX was added only for the first 4-8 days. Chemical treatments were continued for 16-24 days or until GFP-positive colonies appeared. Primary hits were selected for further confirmation and optimization. CiPSC colonies were counted on day 44. […]

The test system of the next experiment is MEFs. In words: CiPSC induction by small-molecule combinations, primary CiPSC colonies counted. The settings on record: for replacement of DZNep in CiPSC generation: in combination with VC6TF. As to the method: The initial cells (MEFs, MNFs, MAFs or ADSCs) were seeded at a density of 50,000 cells per well of a 6-well plate or 300,000 cells per 100 mm dish. On the next day (day 0), the original medium was replaced with chemical reprogramming medium containing the small-molecule combinations. The small-molecule combinations-containing medium was changed every 4 days. On day 12, these cells were washed in PBS and digested with 0.25% Trypsin-EDTA (Invitrogen) at 37° C. for 3-5 min. After neutralization, the cell clumps were dissociated into single cells by thorough pipetting. The cells were harvested (300,000-1,000,000 cells per well of a 6-well plate) and replated at a density of 300,000-500,000 cells per well of a 6-well plate in the chemical reprogramming medium containing the small-molecule combinations. DZNep was added to the cell cultures on day 16 or day 20. On day 28-36, the small-molecule combinations including DZNep were removed. Meanwhile, the chemical reprogramming medium was replaced with 2i-medium. After another 8-12 days, 2i-competent, ESC-like and GFP-positive colonies were counted as primary CiPSC colonies. For CiPSC induction from wild-type cells without OG reporter, 2i-competent and ESC-like colonies were counted as primary CiPSC colonies. These CiPSC colonies were picked up for expansion and characterization. Alternatively, CiPSCs could be induced without replating on day 12.

Experiment [3] concerns pluripotency-related genes. In words: Gene expression during chemical reprogramming (real-time PCR, RNA-seq). The settings on record: for activation of endogenous expression of Sall4 and Sox2: withdrawal from VC6TF, after 12 days.
For experiment [4], the system named is Oct4 promoter. In words: DNA methylation at the Oct4 promoter during chemical reprogramming. From the text: Genomic DNA was modified by bisulfite treatment and purified using the MethylCode™ Bisulfite Conversion Kit (Invitrogen) according to the manufacturer's protocol. The amplified fragments were cloned into the pEASY-blunt Vector (Transgene). Ten randomly picked clones from each sample were sequenced.
(§1) The function of DZNep in inducing CiPSCs could not be replaced by down-regulating Ezh2 expression (FIGS. 14C-E). GFP+/ES-like colonies in the primary culture, unlike other colonies, express high mRNA level of Nanog and low level of Gata6, resembling ESCs and the established CiPSCs (data not shown). As master pluripotency genes, Oct4 and Sox2 may thereby activate other pluripotency-related genes and fulfill the chemical reprogramming process, along with the activation of Nanog and the silencing of Gata6, in the presence of 2i (Silva, et al., PLoS Biol. 6:e253 (2008), Theunissen, et al., Curr. Biol., 21:65-71 (2011). Boyer, et al., Cell, 122:947-956(2005); Chazaud, at al., Dev. Cell, 10:615-624 (2006)).

Experiment [5] concerns concentration ratio of SAH to SAM. In words: SAH and SAM quantification by HPLC. As to the method:
(§2) cAMP was quantified using the Direct cAMP ELISA Kit (Enzo) according to the manufacturer's protocol. For SAM and SAH quantification, cultured cells (1,000,000 cells) were trypsinized and homogenized by ultrasonication in 200 μl PBS. Then 40 μl of 400 mg/ml TCA was added. Cell extracts were incubated on ice for 30 min. After centrifugation at 4° C. (13,000 rpm, 15 min), the supernatants were filtered through a 0.22 μm filter and analyzed by high-performance liquid chromatography (HPLC, Shimadzu) with HILIC columns (Waters).
Next, the role of DZNep, which was added in the late phase of chemical reprogramming was investigated. […] As an SAH hydrolase inhibitor, DZNep elevates the concentration ratio of SAH to S-adenosylmethionine (SAM) and may thereby repress the SAM-dependent cellular methylation process (FIG. 14A).

The subject of experiment [6] is Oct4 promoter. In words: Chromatin immunoprecipitation, H3K9 methylation at the Oct4 promoter. On the procedure:
ChIP was performed using the EZ-Magna ChIP A/G Kit (Millipore) according to the manufacturer's protocol. Anti-H3K27me3 (Abcam, ab6002), anti-H3K9me2 (Millipore, 07-441), anti-H3K4me3 (Abcam, ab8580) and anti-H3K9ac (Abcam, ab4441) antibodies were used. Following immunoprecipitation, DNA was analyzed by real-time PCR.
as §1

The test system of a further experiment is cAMP level in MEF. In words: Intracellular cAMP quantification (Direct cAMP ELISA). The note with it: FSK 10 μM, versus DMSO control. As to the method: as §2
The effect of inhibiting adenylate cyclase on the number of colonies generated by VC6TFZ was tested. […] The effect of replacing FSK with the cAMP analog (DBcAMP), alone or in combination with phosphodiesterase inhibitors, IBMX, or the phosphodiesterase inhibitor, rolipram and IBMX, on cell reprogramming was also tested. Both DBcAMP and IBMX were used at 50 μM in the combination treatment.

Take `Cc1[nH]c2ccc(O)cc2c1CCN` [2-Me-5HT, 2-Methyl-5-hydroxytryptamine hydrocholoride]: the “reprogramming in the absence of Oct4 (chemical substitute for Oct4)” value (“reprogramming in the absence of Oct4” for short) in the experiment on MEFs from OG mice [1] is listed as “identified as chemical “substitutes” for Oct4”.
For `Nc1ncn([C@@H]2O[C@H](CO)[C@@H](O)[C@H]2O)c(=O)n1` [5-Azacytidine], in the experiment on MEFs from OG mice [2], the “hit facilitating late reprogramming” value is listed as “identified in this screen”.
With `Nc1ncnc2c1ncn2C(C=O)OC(C=O)CO` (centres unmarked) [ADOX, Adenosine periodate oxidized], the “replacement of DZNep in CiPSC generation” value in the experiment on MEFs was “useful in replacing DZNep in reprogramming”.
For the compound `Cc1cnc(-c2cnc(NCCNc3ccc(C#N)cn3)nc2-c2ccc(Cl)cc2Cl)[nH]1` [CHIR99021, 6-[[2-[[4-(2,4-Dichlorophenyl)-5-(5-methyl-1H-imidazol-2-yl)-2-pyrimidinyl]amino]ethyl]amino]-3-pyridinecarbonitrile], in experiment [3], the “activation of endogenous expression of Sall4 and Sox2” value (shortened to “activation”) is “essential in activating”.
Consider `NC(=O)c1ccc(-c2nc(-c3ccc4c(c3)OCCO4)c(-c3ccccn3)[nH]2)cc1` [D4476], for which the “reprogramming in the absence of Oct4” value in the experiment with MEFs from OG mice [1] was “identified as chemical “substitutes” for Oct4”.
As to `Nc1nccc2c1ncn2C1OC(CO)C(O)C1O` (centres unmarked) [DZA, 3-Deamadenoxine], the “replacement of DZNep in CiPSC generation” value in the experiment with MEFs is “useful in replacing DZNep in reprogramming”.
Take `Nc1nccc2c1ncn2[C@@H]1C=C(CO)[C@@H](O)[C@H]1O` [DZNep, 3-deazaneplanocin A]: in the experiment on Oct4 promoter [4], the “DNA methylation at the Oct4 promoter” value is on record as “significantly decreased”. Further, the “concentration ratio of SAH to S-adenosylmethionine (SAM)” value in experiment [5] is given as “elevates”. The “H3K9 methylation at the Oct4 promoter” value in the experiment with Oct4 promoter [6] is listed as “significantly decreased”. For the same compound, the Oct4 expression entry in experiment [3] (after addition of DZNep in chemical reprogramming) was “enhanced significantly”. The “hit facilitating late reprogramming” value with MEFs from OG mice [2] is on record as “identified in this screen”.
On to `C=C[C@@]1(C)CC(=O)[C@]2(O)[C@@]3(C)[C@@H](O)CCC(C)(C)[C@@H]3[C@H](O)[C@H](OC(C)=O)[C@@]2(C)O1` [Forskolin], for which, in experiment [3], the “activation” value is on record as “essential in activating”. Moreover, in the experiment on MEFs from OG mice [2], the “hit facilitating late reprogramming” value is “identified in this screen”. Besides, the cAMP level result in the experiment on cAMP level in MEF is given as “significantly elevates”. For the same compound, in the experiment on MEFs from OG mice [1], the “reprogramming in the absence of Oct4” value was “identified as chemical “substitutes” for Oct4”.
Take `Nc1ncnc2c1ncn2[C@@H]1C=C(CO)[C@@H](O)[C@H]1O` [NEPA, (−)Neplanocin A]: the “replacement of DZNep in CiPSC generation” value in the experiment with MEFs is “useful in replacing DZNep in reprogramming”.
For `CCCCC[C@H](O)/C=C/[C@H]1[C@H](O)CC(=O)[C@@H]1C/C=C\CCCC(=O)O` [Prostaglandin E2], the “hit facilitating late reprogramming” value in the experiment on MEFs from OG mice [2] was “identified in this screen”.
Still for that read-out and setting: as for `COc1ccc(C2CNC(=O)C2)cc1OC1CCCC1` (centres unmarked) [Rolipram], the entry is “identified in this screen”.
As to `C/C(=C\c1ccc(C(=O)O)cc1)c1ccc2c(c1)C(C)(C)CCC2(C)C` [TTNPB, 4-[(E)-2-(5,6,7,8-Tetrahydro-5,5,8,8-tetramethyl-2-naphthalenyl)-1-propenyl]benzoic acid], the “enhancement of chemical reprogramming efficiency, factor” value in the experiment with MEFs (booster added to chemical reprogramming in MEFs) was no more than 40. In addition, the chemical reprogramming frequency entry in the experiment with MEFs (with booster TTNPB) is listed as “up to 0.2%”.
For `Cc1cccc(-c2n[nH]cc2-c2ccc3ncccc3n2)n1` [compound 616452, 2-(3-(6-Methylpyridin-2-yl)-1H-pyrazol-4-yl)-1,5-naphthyridine], in experiment [3], the “activation” value was “essential in activating”.
On to `CCCC(=O)[O-].[Na+]` [sodium butyrate, Sodiumbutyane], for which, in the experiment on MEFs from OG mice [2], the “hit facilitating late reprogramming” value is given as “identified in this screen”.
For the compound “bFGF: recombinant basic fibroblast growth factor”, the “requirement in inducing CiPSCs” value with MEFs (FIG. 5G) is given as “necessary in inducing CiPSCs”.

Values taken from patent US9982237B2, “Compositions and methods for reprograming non-pluripotent cells into pluripotent stem cells” (Hong Guan Ltd., priority 2013, dated 2018).
